Common to all, as to assay: Post-emergence efficacy, glasshouse, evaluated after 13 days
Holding throughout (assay type): in vivo

In assay [1] the test system is Chenopodium album (CHEAL). The conditions noted are these: Chenopodium album, 312 h; post-emergence application, 500 g/Ha, evaluated after 13 days; read-out: Control of weed species CHEAL (100=total damage to plant; 0=no damage to plant). In outline:
(§1)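 Sprayed at 14 days after sowing with an emulsifiable IF50-based formulation in aqueous surfactant/ammonium sulphate diluent, the plants were kept in a 24/16 °C glasshouse with 14 h light. Visual herbicidal damage was recorded after 13 days on a 0–100 scale.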

The subject of assay [2] is Echinochloa crus-galli (ECHCG). The conditions noted are these: Echinochloa crus-galli, 312 h; post-emergence application, 500 g/Ha, evaluated after 13 days; read-out: Control of weed species ECHCG (100=total damage to plant; 0=no damage to plant). In outline:
as §1

In assay [3] the test system is Digitaria sanguinalis (DIGSA). The conditions noted are these: Digitaria sanguinalis, 312 h; post-emergence application, 500 g/Ha, evaluated after 13 days; read-out: Control of weed species DIGSA (100=total damage to plant; 0=no damage to plant). In outline: as §1
Assay [4] has as its system Lolium perenne (LOLPE). The settings on record: Lolium perenne, 312 h; post-emergence application, 500 g/Ha, evaluated after 13 days; read-out: Control of weed species LOLPE (100=total damage to plant; 0=no damage to plant). In outline: as §1
Assay [5] concerns Setaria faberi (SETFA). The settings on record: Setaria faberi, 312 h; post-emergence application, 500 g/Ha, evaluated after 13 days; read-out: Control of weed species SETFA (100=total damage to plant; 0=no damage to plant). In outline: as §1
Assay [6] deals with Eleusine indica (ELEIN). The settings on record: Eleusine indica, 312 h; post-emergence application, 500 g/Ha, evaluated after 13 days; read-out: Control of weed species ELEIN (100=total damage to plant; 0=no damage to plant). In outline: as §1
In assay [7] the test system is Amaranthus palmeri (AMAPA). The conditions noted are these: Amaranthus palmeri, 312 h; post-emergence application, 500 g/Ha, evaluated after 13 days; read-out: Control of weed species AMAPA (100=total damage to plant; 0=no damage to plant). The gist of the method:
as §1

Assay [8] relates to Ipomoea hederacea (IPOHE). The settings on record: Ipomoea hederacea, 312 h; post-emergence application, 500 g/Ha, evaluated after 13 days; read-out: Control of weed species IPOHE (100=total damage to plant; 0=no damage to plant). The gist of the method: as §1
In assay [9] the test system is Euphorbia heterophylla (EPHHL). The conditions noted are these: Euphorbia heterophylla, 312 h; post-emergence application, 500 g/Ha, evaluated after 13 days; read-out: Control of weed species EPHHL (100=total damage to plant; 0=no damage to plant). The gist of the method:
as §1

In patent US20210403435A1, “HERBICIDAL COMPOUNDS” (SYNGENTA CROP PROTECTION AG, priority 2018, published 2021) one finds pest or weed control data, which are given here for 14 compounds.

Molecules are shown by their SMILES. Where a name gives a salt, the structure may show the parent alone.

Consider `CC(C)CNC(=O)c1cc[n+](CCC(=O)O)nc1` [Compound A35], for which the pest or weed control at 500 g/ha in [1] was 90%; in [2], 60%; in [3], 80%; in assay [4], 70%; in assay [5] it was 90%; in [6], 100%. In addition, the pest or weed control at 500 g/ha in [7] amounted to 100%; in assay [8], 50%; in assay [9] it was 100%.
For the compound `O=C(NCC(F)(F)F)c1cc[n+](CCS(=O)(=O)[O-])nc1` [Compound A36], the pest or weed control at 500 g/ha was determined as 90% in assay [1]; 30% in assay [2]; 60% in assay [3]; 20% in [4]; 60% in assay [5]; 60% in assay [6]. Moreover, the results for the pest or weed control at 500 g/ha in [7], in assay [8] and in assay [9] were 100%, 40% and 50%, respectively.
Turning to `CC(C)CNC(=O)c1cc[n+](CCS(=O)(=O)[O-])nc1` [Compound A37], the pest or weed control at 500 g/ha in assay [1] came out at 80%; in [2], 50%; in assay [3] it was 70%; in assay [4] it was 50%; in [5], 70%; in [6], 60%. Moreover, the results for the pest or weed control at 500 g/ha in assay [7], in assay [8] and in assay [9] were 100%, 50% and 70%, respectively.
Consider `CN(C(=O)c1cc[n+](CCC(=O)O)nc1)c1ccccc1` [Compound A38, 3-[4-[methyl(phenyl)carbamoyl]pyridazin-1-ium-1-yl]propanoic acid trifluoroacetate], for which the pest or weed control at 500 g/ha came out at 90% in assay [1]; 60% in assay [2]; 70% in [3]; 20% in assay [4]; 90% in assay [5]; 60% in assay [6]. Further, the pest or weed control at 500 g/ha in assay [7] is 100%; in [8], 40%; in [9], 80%.
With `CNC(=O)c1cn[n+](CCS(=O)(=O)[O-])cc1-c1ccccc1` [Compound A39], the pest or weed control at 500 g/ha was 70% in assay [1]; 40% in [2]; 40% in assay [3]; 10% in [4]; 30% in [5]; 50% in assay [6]. The pest or weed control at 500 g/ha in [7] stood at 70%; in assay [8], 20%; in assay [9], 50%.
For the compound `COCCNC(=O)c1cc[n+](CCC(=O)O)nc1` [Compound A40], the pest or weed control at 500 g/ha in assay [1] turned out to be 90%; in assay [2], 90%; in [3], 100%; in assay [4] it was 70%; in assay [5], 100%; in [6] it was 100%. Besides, the pest or weed control at 500 g/ha in assay [7] was 100%; in assay [8] it was 60%; in [9], 100%.
Regarding `O=C(O)CC[n+]1ccc(C(=O)Nc2ccon2)cn1` [Compound A41], the pest or weed control at 500 g/ha in assay [1] was 90%; in [2], 50%; in [3], 70%; in assay [4] it was 10%; in assay [5], 90%; in assay [6] it was 60%. Besides, the pest or weed control at 500 g/ha came out at 80% in assay [7], 20% in assay [8] and 90% in assay [9].
For `COC(=O)CC[n+]1ccc(C(=O)Nc2nccs2)cn1` [Compound A42], the pest or weed control at 500 g/ha in [1] came out at 40%; in assay [2], 10%; in assay [3] it was 10%; in [4], 10%; in [5], 10%; in [6] it was 10%. Further, the pest or weed control at 500 g/ha in [7] was found to be 20%; in assay [8] it was 10%; in assay [9] it was 60%.
On to `CCNC(=O)c1cc[n+](CCC(=O)O)nc1` [Compound A43], for which the pest or weed control at 500 g/ha amounted to 90% in assay [1]; 60% in assay [2]; 100% in assay [3]; 50% in [4]; 100% in assay [5]; 100% in assay [6]. Moreover, the pest or weed control at 500 g/ha in [7] came out at 100%; in [8] it was 70%; in [9], 100%.
For the compound `O=C(O)CC[n+]1ccc(C(=O)NCCO)cn1` [Compound A44], the pest or weed control at 500 g/ha in assay [1] was found to be 100%; in assay [2], 90%; in assay [3] it was 100%; in assay [4], 30%; in assay [5], 100%; in assay [6] it was 30%. In addition, the pest or weed control at 500 g/ha in [7], in assay [8] and in assay [9] was 100% in each case.
With `CCCNC(=O)c1cc[n+](CCC(=O)O)nc1` [Compound A46], the pest or weed control at 500 g/ha turned out to be 70% in assay [1]; 80% in assay [2]; 90% in assay [3]; 20% in assay [4]; 100% in [5]; 10% in assay [6]. Further, the pest or weed control at 500 g/ha in assay [7] is 50%; in [8], 40%; in [9], 100%.
Regarding `O=C(O)CC[n+]1ccc(C(=O)NCC(F)(F)F)cn1` [Compound A47], the pest or weed control at 500 g/ha was 90% in assay [1]; 100% in assay [2]; 100% in assay [3]; 30% in assay [4]; 90% in assay [5]; 20% in [6]. For the same compound, the pest or weed control at 500 g/ha is 100% in assay [7], 90% in [8] and 100% in assay [9].
With `CCCCNC(=O)c1cc[n+](CCS(=O)(=O)[O-])nc1` [Compound A50], the pest or weed control at 500 g/ha in assay [1] is 70%; in assay [2], 40%; in assay [3], 60%; in [4] it was 20%; in assay [5], 60%; in [6], 10%. Moreover, the figures for the pest or weed control at 500 g/ha in assay [7], in [8] and in assay [9] were 60%, 60% and 40%, respectively.
As for `CCCNC(=O)c1cc[n+](CCS(=O)(=O)[O-])nc1` [Compound A51], the pest or weed control at 500 g/ha is 70% in assay [1]; 60% in assay [2]; 90% in [3]; 20% in assay [4]; 60% in [5]; 20% in assay [6]. Also, the pest or weed control at 500 g/ha in assay [7] is 50%; in assay [8], 60%; in assay [9] it was 60%.
